pIC50: −log10 of the molar value.
These compounds were tested against T1, His-CHK1 (Homo sapiens, UniProt O14757) (assay: CHK1 SPA Assay). Conditions: not given.
T1 construct: fused on or other part: His tag
T1 sequence (O14757 1-265 limits assumed): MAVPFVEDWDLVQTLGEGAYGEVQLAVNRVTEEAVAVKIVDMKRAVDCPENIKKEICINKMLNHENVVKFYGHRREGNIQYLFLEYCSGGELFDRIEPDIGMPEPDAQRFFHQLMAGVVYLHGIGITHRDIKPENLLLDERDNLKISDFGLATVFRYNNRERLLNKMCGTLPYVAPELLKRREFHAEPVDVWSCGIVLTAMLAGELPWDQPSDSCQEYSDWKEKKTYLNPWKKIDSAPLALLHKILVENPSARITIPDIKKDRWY
Type: biochemical

SMILES | pIC50
Cn1cc(-c2cnn3c(N)c(Br)c(CC4CCCNC4)nc23)cn1 (stereo not drawn) | 8.05
Cc1cc(Nc2cc(C3CCCNC3)nc3c(-c4cnn(C)c4)cnn23)sn1 (stereo not drawn) | 8.15

Same assay, conditions: read-out: CHK1 inhibitory activity (IC50)

SMILES | pIC50
Cn1cc(-c2cnn3c(N)c(I)c(C4CCCNC4)nc23)cn1 (stereo not drawn) | 8.52
CC#Cc1c(C2CCCNC2)nc2c(-c3cnn(C)c3)cnn2c1N (stereo not drawn) | 7.35

Same assay, conditions: recombinant His-CHK1, biotinylated CDC25C peptide substrate, 1 μM ATP, 2 hours at room temperature; read-out: CHK1 inhibitory activity (IC50)

SMILES | pIC50
Nc1c(Br)c(C2CCCNC2)nc2c(-c3ccoc3)cnn12 (stereo not drawn) | 7.60
N#Cc1cc(-c2cnn3c(N)c(Br)c(C4CCCNC4)nc23)co1 (stereo not drawn) | 8.40
Cn1cc(-c2cnn3c(N)c(Br)c(C4CNCCS4)nc23)cn1 (stereo not drawn) | 8.22
Cn1cc(-c2cnn3c(N)cc(CC4CCNCC4)nc23)cn1 | 6.40
Cn1cc(-c2cnn3c(N)c(-c4cccs4)c(C4CCCNC4)nc23)cn1 (stereo not drawn) | 7.05
CN(C)c1cccc(Nc2cc(C3CCCNC3)nc3c(-c4cnn(C)c4)cnn23)c1 (stereo not drawn) | 6.60

More lines, now with the values ahead:

pIC50 | SMILES
6.37 | Nc1c(Br)c(N2CC[C@H](N)C2)nc2c(-c3ccsc3)cnn12
7.96 | Cn1cc(-c2cnn3c(N)c(Br)c(CCCN)nc23)cn1
6.92 | N#Cc1ccc(-c2cnn3c(N)cc(C4CCCNC4)nc23)cc1 (stereo not drawn)
7.22 | Cn1cc(-c2cnn3c(Nc4ccc(-n5ccnc5)cc4)cc(C4CCCNC4)nc23)cn1 (stereo not drawn)
6.41 | Cn1cc(-c2cnn3c(Nc4cccc(S(N)(=O)=O)c4)cc(C4CCCNC4)nc23)cn1 (stereo not drawn)
7.00 | Cn1cc(-c2cnn3c(Nc4ccncc4)cc(C4CCCNC4)nc23)cn1 (stereo not drawn)
8.15 | Cc1cc(Nc2cc(C3CCCNC3)nc3c(-c4coc(C#N)c4)cnn23)sn1 (stereo not drawn)
7.30 | Cc1cc(Nc2cc(N3CC[C@@H](N)C3)nc3c(-c4cnn(C)c4)cnn23)sn1

Reference: patent publication US8211854B2, “Methods for inhibiting protein kinases” (Schering Corporation, priority 2005, dated 2012)
